Laboratory results taken from patent publication US11413278B2, “Compounds and methods for promoting stress resistance” (priority 2015, dated 2022).
Where two headings read alike, the source gives them in different places.

How the values were obtained:
WI-38 cells [1] = assay: Propidium iodide (PI) cell-death imaging upon H2O2 stress; format: cell-based, human; conditions: for Assay 7: H2O2-resistant, at 10 uM, validated by propidium iodide (PI) cell-death imaging: w/H2O2, 3 hrs/4 hrs/5 hrs, YES/NO; for cytotoxicity at 10 µM: Homo sapiens, WI-38
WI-38 cells [2] = assay: MMS resistance assay; format: cell-based, human; conditions: for fold induction at 10 µM: Homo sapiens, 12 h, normalized ATP measurement; for Assay 3: MMS-resistant / Assay 5: Triple resistant: YES/NO; for Assay 3: MMS-resistant: * indicates partial; for Assay 5: Triple resistant: H2O2, cadmium and MMS
Method in brief: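 WI-38 cells were given compounds at five final concentrations (0.25–20 μM) in triplicate, followed by cadmium or MMS for 12 h. For MMS, medium was switched from OptiMEM+10% FBS to serum-free DMEM+2% BSA when compounds were added, 24 h before stressor. Two independent assays were run, analysed by global variance t-test.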

mTOR = mTOR inhibition (RPS6 phosphorylation status), In-Cell Western; format: cell-based, human
Method in brief: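 WI-38 cells exposed to compounds at 5, 10 and 20 μM for 24 hrs. Fixed cells co-stained overnight at 4° C with anti-RPS and anti-pRPS6 (Ser-235/236) antibodies, then DyLight 680/800 secondaries. Phospho-RPS6 relative to total RPS6 read by near-infrared In-Cell Western imaging.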

WI-38 cells [3] = assay: Long-term effects on cell viability (5 days, ATP; morphology, PI imaging); format: cell-based; conditions: 10 μM; for Luminescence signal for ATP measurement, day-1 Average / Luminescence signal for ATP measurement, day-2 Average / Luminescence signal for ATP measurement, day-3 Average / Luminescence signal for ATP measurement, day-4 Average / Luminescence signal for ATP measurement, day-5 Average: n = 6; for viability at 10 µM: Homo sapiens, WI-38, 120 h, DMSO ctrl = 100.0%, read-out: ATP luminescence by day-5 normalized; for Luminescence signal for ATP measurement, day-5 Average / viability at 10 µM: day-5; for O = Potential toxicity / Q = Potential toxicity: human, 5 days;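 as to Luminescence signal for ATP measurement, day-2 Average: compounds at 10 µM with ATP read daily over 5 days of treatment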;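 as to Luminescence signal for ATP measurement, day-3 Average: compounds at 10 µM with ATP read daily over 5 days of treatment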;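 as to Luminescence signal for ATP measurement, day-4 Average: compounds at 10 µM with ATP read daily over 5 days of treatment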;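 as to Luminescence signal for ATP measurement, day-5 Average: compounds at 10 µM with ATP read daily over 5 days of treatment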
WI-38 cells [4] = conditions: no H2O2 stress, 10 uM; negative control 0.41% ± 0.23%
Procedure: WI-38 cells were seeded on 384-well plates for 24 hrs and then incubated with small molecules for 24 hrs. […] Images were collected on an INCell Analyzer 2000 (GE) and analyzed with the Developer software.

WI-38 cells [5] = conditions: for No H2O2 stress treatment, at 10 uM (fold change): normalized ATP measurement; for Assay 1: H2O2-resistant: YES/NO, if NO, possibly due to repeated freezing/thawing of stocks
[6] = H2O2 3 hrs, 10 uM, n = 6, negative control 5.44% ± 0.79%, read-out: Percentage of propidium iodide-positive dead cells (under H2O2 stress treatment), 3 hrs
[7] = pre-treatment at 10 uM, 3.5 hours of H2O2, DMSO control 27.4% ± 6.5%, */**/*** = reduced by one/two/three standard deviations, read-out: Percentage of propidium iodide-positive dead cells (under H2O2 stress treatment), at 10 uM
[8] = Exp. 1, WI-38 cells, read-out: Exp. 1, under MMS stress treatment, at 10 uM (fold change)
[9] = Exp. 2, WI-38 cells, read-out: Exp. 2, under MMS stress treatment, at 10 uM (fold change)
[10] = score in summary of 38 core set hits
[11] = Batch 2, day-0 luminescence = 229312 ± 17487
[12] = WI-38 cells, 10 μM, (*) = compromised ability to protect cells from H2O2, could be due to stability issue
[13] = asterisks indicate the loss of the ability to protect cells from H2O2 over time
[14] = derived from dose response curves, 0.6-20 uM, H2O2-resistance of WI-38 cells
[15] = read-out: Est. ED50, dose response 0.6-20 μM, H2O2-resistance
[16] = Batch 1, day-0 luminescence = 320956 ± 24708

| SMILES | Assay 7: H2O2-resistant, at 10 uM, validated by propidium iodide (PI) cell-death imaging (WI-38 cells [1]; 10 uM) | cytotoxicity at 10 µM (WI-38 cells [1]; [6]) | cytotoxicity at 10 µM (WI-38 cells [1]; [7]) | fold induction at 10 µM (WI-38 cells [2]; [8]) | fold induction at 10 µM (WI-38 cells [2]; [9]) | B = MMS resistant (WI-38 cells [2]; [10]) | B = MMS resistant (WI-38 cells [2]; summary score) | D = Triple resistant (WI-38 cells [2]; summary score) | G = mTOR down-regulation (mTOR; 2-point score) | G = mTOR down-regulation (mTOR; summary score) | O = Potential toxicity (WI-38 cells [3]) | Q = Potential toxicity (WI-38 cells [3]) | Percentage of propidium iodide-positive dead cells (no H2O2 stress treatment), at 10 uM (WI-38 cells [4]) | H2O2-resistant (WI-38 cells [5]; [12]) | No H2O2 stress treatment, at 10 uM (fold change) (WI-38 cells [5]; WI-38 cells) | H2O2-resistant (WI-38 cells [5]; [13]) | EC50 (WI-38 cells [5]; [14]) | EC50 (WI-38 cells [5]; [15]) | Luminescence signal for ATP measurement, day-1 Average (WI-38 cells [3]; [16]) | Assay 1: H2O2-resistant (WI-38 cells [5]) | also measured |
| --- | --- | --- | --- | --- | --- | --- | --- | --- | --- | --- | --- | --- | --- | --- | --- | --- | --- | --- | --- | --- | --- |
| Nc1ccccc1S(=O)(=O)Nc1cccc2cccnc12 [Gr-3C] | YES | 5.13% | 3.1% | 1.06 | 0.84 | 0 | 0 | 0 | 0 | 0 | 0 | 1 | 0.57% ± 0.24%, | YES | 0.95 fold change | YES | 6.5 µM | 4.6 µM |  |  | Luminescence signal for ATP measurement, day-1 Average (WI-38 cells [3]; [11]): 190045; Luminescence signal for ATP measurement, day-2 Average (WI-38 cells [3]; [11]): 194191; Luminescence signal for ATP measurement, day-3 Average (WI-38 cells [3]; [11]): 270505; Luminescence signal for ATP measurement, day-4 Average (WI-38 cells [3]; [11]): 244033; Luminescence signal for ATP measurement, day-5 Average (WI-38 cells [3]; [11]): 265285; viability at 10 µM (WI-38 cells [3]; Batch 2): 47.7% |
| COc1ccc(C(=O)/C=C/c2ccc(F)cc2)c(OC)c1 [Gr-4A] | YES | 1.87% | 1.9% | 0.95 | 1.52 | 0 | 0 | 0 | 0 | 0 | 0 | 0 | 0.39% ± 0.14%, | YES | 1.08 fold change | YES | 9.1 µM | 4.97 µM | 501436 | YES | Luminescence signal for ATP measurement, day-2 Average (WI-38 cells [3]; [16]): 605711; Luminescence signal for ATP measurement, day-3 Average (WI-38 cells [3]; [16]): 772420; Luminescence signal for ATP measurement, day-4 Average (WI-38 cells [3]; [16]): 995321; Luminescence signal for ATP measurement, day-5 Average (WI-38 cells [3]; [16]): 1019996; viability at 10 µM (WI-38 cells [3]; Batch 1): 99.3% |
| COc1ccc(C(=O)/C=C/c2ccccc2Br)c(OC)c1 [Gr-4B] | YES | 3.31% | 3.4% | 1.22 | 1.54 | 0 | 1 | 2 | 0 | 0 | 0 | 0 | 0.36% ± 0.13%, | YES | 1.18 fold change | YES | 8.9 µM | 5.33 µM |  | YES | Assay 3: MMS-resistant (WI-38 cells [2]): YES; Assay 5: Triple resistant (WI-38 cells [2]): YES |
| COc1ccc(C(=O)/C=C/c2cccc(Cl)c2)c(OC)c1 [Gr-4C] | YES | 4.02% | 17.4% | 1.24 | 1.61 | 0 | 1 | 2 | 0 | 0 | 0 | 0 | 0.47% ± 0.20%, | YES | 1.08 fold change | YES | 8.4 µM | 6.45 µM | 413360 | YES | cytotoxicity at 10 µM (WI-38 cells [1]; H2O2 4 hrs, 10 uM, n = 6, negative control 16.81% ± 1.42%, read-out: Percentage of propidium iodide-positive dead cells (under H2O2 stress treatment), 4 hrs): 6.21%; Assay 3: MMS-resistant (WI-38 cells [2]): YES; Assay 5: Triple resistant (WI-38 cells [2]): YES; Luminescence signal for ATP measurement, day-2 Average (WI-38 cells [3]; [16]): 474171; Luminescence signal for ATP measurement, day-3 Average (WI-38 cells [3]; [16]): 485641; Luminescence signal for ATP measurement, day-4 Average (WI-38 cells [3]; [16]): 769380; Luminescence signal for ATP measurement, day-5 Average (WI-38 cells [3]; [16]): 813018; viability at 10 µM (WI-38 cells [3]; Batch 1): 79.2% |
